Results as given in article PMC9600550, “The pH Robustness of Bacterial Sensing” (mBio, 2022).
Several values for one entry are separate records, joined by “and”; a condition that tells them apart may be missing. Equal entries are not always repeated. Where two headings read alike, the source gives them in different places.

Assays:
Tar-LBD [1] = biological target: T1, Tar-LBD (Escherichia coli, UniProt P07017); assay: ITC titration of Tar-LBD with L-aspartate at different pH; type: binding, E. coli K12; settings: for pH range of binding: defined as binding with a KD below 1 mM
T1 construct: A DNA fragment encoding the Tar-LBD (amino acids 31 to 188) was amplified from genomic DNA of E. coli K12; His tag (from pET28b(+)) (N); made in house; host or cells: Escherichia coli BL21(DE3)
T1 sequence (P07017 31-188): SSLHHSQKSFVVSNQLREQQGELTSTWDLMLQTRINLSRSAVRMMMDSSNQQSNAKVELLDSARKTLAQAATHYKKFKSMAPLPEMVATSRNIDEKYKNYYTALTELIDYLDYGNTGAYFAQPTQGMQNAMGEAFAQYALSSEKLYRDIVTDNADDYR

Tar = biological target: T2, Tar (Escherichia coli, UniProt P07017); assay: FRET (CheY-YFP/CheZ-CFP) chemotaxis pathway response, Tar as sole chemoreceptor; type: cell-based; settings: E. coli VS181 with Tar as sole chemoreceptor, read-out: EC50 (half-maximal effective concentration), FRET titration
T2 construct: expressed in transfected cells; host or cells: receptorless E. coli VS181, plasmid pSB13 (pKG116 derivative)
T2 sequence (P07017 whole entry): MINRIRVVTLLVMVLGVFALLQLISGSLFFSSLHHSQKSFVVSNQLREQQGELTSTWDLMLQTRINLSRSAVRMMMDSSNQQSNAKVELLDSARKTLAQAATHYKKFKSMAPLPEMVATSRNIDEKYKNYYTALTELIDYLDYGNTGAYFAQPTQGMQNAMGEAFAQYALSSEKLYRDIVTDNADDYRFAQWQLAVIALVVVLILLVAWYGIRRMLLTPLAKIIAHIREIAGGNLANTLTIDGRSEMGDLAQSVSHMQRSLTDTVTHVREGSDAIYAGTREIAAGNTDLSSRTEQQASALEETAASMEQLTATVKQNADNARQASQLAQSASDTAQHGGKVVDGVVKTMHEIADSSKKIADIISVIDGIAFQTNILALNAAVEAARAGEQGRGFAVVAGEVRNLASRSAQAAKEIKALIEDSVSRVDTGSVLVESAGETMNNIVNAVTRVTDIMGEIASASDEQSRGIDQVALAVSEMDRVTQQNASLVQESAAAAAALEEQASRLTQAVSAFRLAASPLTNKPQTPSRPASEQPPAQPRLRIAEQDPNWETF

Tar-LBD [2] = biological target: T1, Tar-LBD; assay: Sedimentation-velocity analytical ultracentrifugation of Tar-LBD with and without L-Asp; set-up: species or system E. coli K12; settings: 1 mM ligand; all pH values analysed (3.5, 5.0, 7.0, 10.0)
Procedure: To estimate the sedimentation coefficient expected for the monomeric and dimeric states of the Tar-LBD, a hydrodynamic model was generated from the 3D structure of the protein (pdb ID 4Z9H) ([45]). Using the HYDROPRO software, the theoretical sedimentation coefficients were s(20,w) = 2.12 S for the monomer and 3.54 S for the dimer (Fig. 5A).
Experiments were conducted on a ProteomeLab XL-I instrument (Beckman-Coulter) equipped with interference and absorbance optics. Sedimentation was carried out at 42,000 rpm and 10°C in an eight-hole Ti-50 Beckman Coulter rotor and monitored with absorbance optics at 280 nm in continuous mode. Samples were dialyzed into 4 different buffers, namely, 10 mM citric acid/sodium citrate, pH 3.5; 10 mM citric acid/sodium citrate, pH 5.0; 3 mM Tris, 3 mM PIPES, 3 mM MES, pH 7.0, and 10 mM Na2CO3/NaHCO3, pH 10.0. […] Density and viscosity of the buffer were calculated with [sequence] […] To assign the sedimentation coefficient observed to the corresponding oligomeric species, theoretical s values were calculated via HYDROPRO ([92]) hydrodynamic modeling software, applied to the 3D structure of the Tar-LBD monomer and dimer (pdb ID 4H9Z), with a 2.9 Å radius for the primary elements.

Tar-LBD [3] = biological target: T1, Tar-LBD; assay: Differential scanning calorimetry of Tar-LBD thermal unfolding in presence of L-Asp; set-up: species or system E. coli K12; settings: 1 mM L-Asp
Procedure: Differential scanning calorimetry (DSC) provides information on the thermodynamics of protein unfolding. At 5.0, the optimal pH for binding and dimerization, Tar-LBD formed a sharp peak with or without 1 mM L-Asp (Fig. 5B and C, and Table S3), indicative of highly cooperative unfolding. […] We thus conclude that at all pH values tested, at least some of the protein was present in the dimeric form and capable of binding ligand.
Experiments were conducted on a MicroCal DSC-PEAQ system (Malvern Panalytical) at a scan rate of 90°C/h over a temperature range of 10°C to 85°C. Calorimetric cells (operating volume 0.134 mL) were kept under pressure (60 lb/in^2) to prevent sample degassing. Buffer-buffer baselines obtained after each assay were subtracted from the signal obtained from each of the samples. Protein samples were prepared as detailed in the “Analytical ultracentrifugation” section. The calorimetric enthalpies were estimated by integration of the transition peaks after subtracting the buffer-buffer baselines and fitting the curves to a “Non-two-state” model using MicroCal DSC-PEAQ software. For graphical clarity of the plots, baselines were manually curated and raw data were smoothed with the Savitzky-Golay algorithm.

AdmX-LBD = AdmX-LBD (Serratia plymuthica, UniProt P0DV33); assay: ITC titration of AdmX-LBD with indole-3-pyruvic acid at different pH; type: binding, Serratia plymuthica A153
Chain of AdmX-LBD (P0DV33 91-304): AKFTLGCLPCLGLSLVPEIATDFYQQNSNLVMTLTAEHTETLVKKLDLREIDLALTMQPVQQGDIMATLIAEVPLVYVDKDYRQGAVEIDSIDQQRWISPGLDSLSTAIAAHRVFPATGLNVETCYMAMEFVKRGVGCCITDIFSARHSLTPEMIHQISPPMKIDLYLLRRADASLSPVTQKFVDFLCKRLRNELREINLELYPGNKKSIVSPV

McpH-LBD = biological target: T3, McpH-LBD (Pseudomonas putida, UniProt Q88R14); assay: ITC titration of McpH-LBD with adenine at different pH; type: binding, P. putida KT2440; settings: 25°C
T3 construct: pET28b(+) derivative containing a DNA fragment encoding the McpH-LBD; made in house
T3 sequence (Q88R14 51-276): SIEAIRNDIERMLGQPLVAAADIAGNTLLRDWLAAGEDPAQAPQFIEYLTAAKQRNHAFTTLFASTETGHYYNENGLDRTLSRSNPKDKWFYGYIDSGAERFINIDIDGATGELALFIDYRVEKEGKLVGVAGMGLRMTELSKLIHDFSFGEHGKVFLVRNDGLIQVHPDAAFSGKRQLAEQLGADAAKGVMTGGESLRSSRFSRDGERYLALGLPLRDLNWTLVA

CtpM-LBD = biological target: T4, CtpM-LBD (Pseudomonas aeruginosa, UniProt Q9I0I6); assay: ITC titration of CtpM-LBD with L-malate at different pH; type: binding, P. aeruginosa PAO1
T4 construct: containing a DNA fragment encoding the CtpM (PA2652)-LBD; made in house
T4 sequence (Q9I0I6 33-205): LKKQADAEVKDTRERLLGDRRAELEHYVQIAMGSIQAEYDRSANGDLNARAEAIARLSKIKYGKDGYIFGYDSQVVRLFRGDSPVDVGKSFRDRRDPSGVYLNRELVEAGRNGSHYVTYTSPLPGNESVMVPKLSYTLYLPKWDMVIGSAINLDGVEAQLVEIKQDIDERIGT

McpS-LBD = biological target: T5, McpS-LBD (Pseudomonas putida, UniProt Q88E10); assay: ITC titration of McpS-LBD with L-malate at different pH; type: binding, P. putida KT2440; settings: 25°C
T5 construct: pET28b(+) derivative containing a DNA fragment encoding the McpS-LBD; made in house
T5 sequence (Q88E10 41-283): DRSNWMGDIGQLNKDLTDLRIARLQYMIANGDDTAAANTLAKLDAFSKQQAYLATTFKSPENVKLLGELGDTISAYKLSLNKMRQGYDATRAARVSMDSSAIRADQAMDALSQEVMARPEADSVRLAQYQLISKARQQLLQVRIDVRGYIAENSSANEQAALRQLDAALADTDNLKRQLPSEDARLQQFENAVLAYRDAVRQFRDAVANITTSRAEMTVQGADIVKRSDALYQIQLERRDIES

McpS-Tar = biological target: T6, McpS-Tar (UniProt P07017+Q88E10); assay: FRET (CheY-YFP/CheZ-CFP) chemotaxis pathway response, McpS-Tar hybrid as sole chemoreceptor; type: cell-based; settings: E. coli VS181 with McpS-Tar as sole chemoreceptor, read-out: EC50 (half-maximal effective concentration), FRET titration
T6 construct: 295]-Tar[200-553] receptor; expressed in transfected cells; host or cells: receptorless E. coli VS181, plasmid pSB10 (pKG116 derivative)
T6 sequence (Q88E10+P07017 fused): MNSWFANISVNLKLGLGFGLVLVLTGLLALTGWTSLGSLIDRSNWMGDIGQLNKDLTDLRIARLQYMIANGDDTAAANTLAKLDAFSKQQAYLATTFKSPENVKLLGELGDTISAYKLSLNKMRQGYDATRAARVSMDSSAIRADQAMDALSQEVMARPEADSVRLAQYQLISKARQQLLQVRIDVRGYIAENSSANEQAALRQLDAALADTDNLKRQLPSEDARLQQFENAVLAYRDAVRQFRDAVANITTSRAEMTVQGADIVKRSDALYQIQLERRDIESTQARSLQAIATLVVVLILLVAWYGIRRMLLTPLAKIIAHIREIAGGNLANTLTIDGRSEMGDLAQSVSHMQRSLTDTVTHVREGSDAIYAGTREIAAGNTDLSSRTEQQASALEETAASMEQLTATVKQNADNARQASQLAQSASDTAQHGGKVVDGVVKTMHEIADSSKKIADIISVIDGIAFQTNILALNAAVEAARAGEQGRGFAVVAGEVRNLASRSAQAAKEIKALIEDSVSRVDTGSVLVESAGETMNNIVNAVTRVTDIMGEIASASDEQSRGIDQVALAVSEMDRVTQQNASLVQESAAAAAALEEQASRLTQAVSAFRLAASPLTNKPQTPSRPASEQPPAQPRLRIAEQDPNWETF

TodS-Nter = TodS-Nter (Pseudomonas putida, UniProt E0X9C7); assay: biochemical
Chain of TodS-Nter (E0X9C7 1-584): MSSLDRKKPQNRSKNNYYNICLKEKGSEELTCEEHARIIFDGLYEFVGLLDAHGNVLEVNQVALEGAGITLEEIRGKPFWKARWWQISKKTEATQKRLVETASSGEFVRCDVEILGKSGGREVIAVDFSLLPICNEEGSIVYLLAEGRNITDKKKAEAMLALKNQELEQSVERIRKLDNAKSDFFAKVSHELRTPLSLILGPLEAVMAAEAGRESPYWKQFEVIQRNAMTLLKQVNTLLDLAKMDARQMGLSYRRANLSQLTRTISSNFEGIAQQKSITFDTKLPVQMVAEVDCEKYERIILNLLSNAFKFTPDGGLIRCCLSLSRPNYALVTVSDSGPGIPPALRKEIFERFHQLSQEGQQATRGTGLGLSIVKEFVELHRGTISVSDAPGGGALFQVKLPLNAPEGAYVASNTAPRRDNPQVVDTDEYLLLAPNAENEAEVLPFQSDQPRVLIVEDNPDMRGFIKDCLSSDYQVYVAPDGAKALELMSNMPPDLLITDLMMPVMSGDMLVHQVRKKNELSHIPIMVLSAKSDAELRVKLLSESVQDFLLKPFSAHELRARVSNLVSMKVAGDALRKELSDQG
Procedure: To assess the pH dependence of ligand-binding, freshly purified proteins were dialyzed overnight into the buffers described in Table S1 and submitted to microcalorimetric titration.
Freshly purified proteins were dialyzed into the buffers specified in Table S1 and introduced into the sample cell of an VP-microcalorimeter (MicroCal). Proteins at 15 to 100 μM were titrated with 0.25 to 10 mM ligand solutions that were made up in dialysis buffer. For pH-active ligands, the pH of the ligand solutions was adjusted to that of the dialysis buffer by the addition of concentrated HCl or NaOH. Titrations of MBP and McpV-LBD were conducted at 15°C to favor endothermic contributions to binding heats, whereas the remaining titrations were carried out at 25°C. Raw titration data were integrated, corrected for ligand-dilution heats and normalized with the ligand concentrations. Resulting data were fitted with the “One Binding site model” of the MicroCal version of ORIGIN. Provided are the dissociation constants derived from one experiment and the error of curve-fitting.

McpQ-LBD = biological target: T7, McpQ-LBD (Pseudomonas putida, UniProt Q88D09); assay: ITC titration of McpQ-LBD with citrate at different pH; type: binding, P. putida KT2440; settings: 25°C
T7 construct: pET28b(+) derivative containing a DNA fragment encoding the McpQ-LBD; made in house
T7 sequence (Q88D09 45-282): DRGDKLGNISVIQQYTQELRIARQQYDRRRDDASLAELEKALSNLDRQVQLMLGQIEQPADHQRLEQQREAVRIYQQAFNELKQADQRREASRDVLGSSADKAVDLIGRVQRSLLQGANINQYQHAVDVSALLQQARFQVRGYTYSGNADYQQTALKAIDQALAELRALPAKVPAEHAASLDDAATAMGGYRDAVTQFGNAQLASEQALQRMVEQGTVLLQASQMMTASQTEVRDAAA

(UniProt A0A4D6XHN3) = assay: ITC titration of E6B08_RS28125 with L-ornithine at different pH; type: binding, P. putida 1290; settings: 25°C, pH 9.0, read-out: KD at pH optimum
Chain of (UniProt A0A4D6XHN3) (A0A4D6XHN3 24-265 limits assumed): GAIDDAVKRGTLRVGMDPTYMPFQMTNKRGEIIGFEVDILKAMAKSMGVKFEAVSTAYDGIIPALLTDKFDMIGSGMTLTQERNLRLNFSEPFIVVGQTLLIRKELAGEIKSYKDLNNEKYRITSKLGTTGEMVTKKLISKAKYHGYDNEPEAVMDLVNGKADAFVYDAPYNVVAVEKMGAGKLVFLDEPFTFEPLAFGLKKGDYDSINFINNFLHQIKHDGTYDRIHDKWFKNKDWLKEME

[4] = ITC, 25°C, defined as binding with a KD below 1 mM
[5] = defined as binding with a KD below 1 mM

N[C@@H](CC(=O)O)C(=O)O [L-aspartate]
pH optimum (Tar-LBD [1]; 25°C): 5.0
pH range of binding (Tar-LBD [1]; 25°C): 3.0-10.5
pH range of binding (Tar-LBD [1]; 25°C, listed as L-Asp): ≤ 10.5
Kd (Tar-LBD [1]; 25°C, pH 5.0, read-out: KD at pH optimum): 400 nM
width of pH range of high-affinity binding (Tar-LBD [1]; pH 3.0 to 10.5): 7.5 pH units
EC50 (Tar; pH 5.5): 166 ± 20 nM
EC50 (Tar; pH 7.0): 202 ± 20 nM
EC50 (Tar; pH 8.5): 77 ± 10 nM
EC50 (Tar; pH 9.5): 141 ± 20 nM
effect on Tar-LBD monomer-dimer equilibrium (Tar-LBD [2]): shifted the equilibrium almost completely to the dimeric species
Tm of Tar-LBD thermal unfolding (Tar-LBD [3]; pH 3.5, two transitions): 44.28 ºC and 64.51 ºC
Tm of Tar-LBD thermal unfolding (Tar-LBD [3]; pH 5.0): 47.73 ºC
ΔH of Tar-LBD thermal unfolding (Tar-LBD [3]; pH 5.0): 106.4 kcal/mol
Tm of Tar-LBD thermal unfolding (Tar-LBD [3]; pH 7.0, two transitions): 36.48 ºC and 42.20 ºC
Tm of Tar-LBD thermal unfolding (Tar-LBD [3]; pH 10.0): 35.11 ºC
ΔH of Tar-LBD thermal unfolding (Tar-LBD [3]; pH 10.0): 98.6 kcal/mol

O=C(O)C(=O)Cc1c[nH]c2ccccc12 [Indole-3-pyruvic acid]
Kd (AdmX-LBD): 12700 nM
pH optimum (AdmX-LBD; ITC, 25°C): 8.0
pH range of binding (AdmX-LBD; [4]): 7.5-8.0

Nc1ncnc2[nH]cnc12 [Adenine]
pH optimum (McpH-LBD): 5.0
pH range of binding (McpH-LBD; [5]): 3.5-10.0
Kd (McpH-LBD; pH 5.0, read-out: KD at pH optimum): 1680 nM

O=C(O)C[C@H](O)C(=O)O [L-malate]
width of pH range of high-affinity binding (CtpM-LBD): 4.5 pH units
pH optimum (CtpM-LBD; 25°C): 6.5
pH range of binding (CtpM-LBD; 25°C, defined as binding with a KD below 1 mM): 4.5-9.0
Kd (CtpM-LBD; 25°C, pH 6.5, read-out: KD at pH optimum): 38700 nM
pH optimum (McpS-LBD): 5.5
pH range of binding (McpS-LBD; [5]): 3.0-10.0
Kd (McpS-LBD; pH 5.5, read-out: KD at pH optimum): 4000 nM
EC50 (McpS-Tar; pH 5.5): 9380 ± 1900 nM
EC50 (McpS-Tar; pH 7.0): 2180 ± 410 nM
EC50 (McpS-Tar; pH 8.5): 7660 ± 1900 nM

Cc1ccccc1 [Toluene]
Kd (TodS-Nter): 250 nM
width of pH range of ligand recognition (TodS-Nter; ITC): 4 pH units
pH optimum (TodS-Nter; ITC, 25°C): 6.5
pH range of binding (TodS-Nter; [4]): 5.5-9.5

O=C(O)CC(O)(CC(=O)O)C(=O)O [Citrate]
pH optimum (McpQ-LBD): 6.0
Kd (McpQ-LBD; pH 6.0, read-out: KD at pH optimum): 153000 nM

NCCC[C@H](N)C(=O)O [L-ornithine]
Kd ((UniProt A0A4D6XHN3)): 660 nM
